Consider 26 compounds from patent US20100003246A1, “Novel heterocyclic compounds and uses therof” (priority 2008, published 2010).

The subject of assay [1] is SU86.86 cells. Kind of assay: Cell Titer-Glo cell viability assay, SU86.86. The assay is classed as cell-based. Conditions: Homo sapiens, SU.86.86, 120 h; Pancreatic cell line SU86.86; 5 days compound incubation; 1000 cells/well. The protocol: (§1) The Cell Titer-Glo® assay (Promega) was used to measure cell viability. Cells were plated into 96-well black walled tissue culture plates in complete growth media. The plates were then incubated under standard growth conditions of 37° C. and 5% CO2 until the cells had attached to the plates (3-6 hours), then compounds were added to the cells. Compounds were serially diluted in DMSO using 3-fold dilutions and then diluted in complete media before being added to the cells (final DMSO concentration on cells was 0.1-0.2%).
(§2) After compound incubation, the cell plates were equilibrated to room temperature, culture media was removed, and 200 uL of Cell Titer-Glo® reagent mix was added to each well (1:1 mixture of Cell Titer-Glo® reagent and complete growth media, equilibrated to room temperature). The plates were shaken for 5-10 minutes, then sealed and luminescence was measured (using Trilux plate reader, Perkin Elmer).
(§3) Analysis of data was done by subtracting the background luminescence value from each data point, then determining the percent inhibition of total growth (as determined by the values for DMSO-treated wells).
(§4) To determine the EC50 for each compound, the data were fit using the Levenburg Marquardt algorithm, represented in the XLfit software as y=A+((B−A)/(1+((C/x)̂D))), the four parameter dose response model 205, where A is the minimum Y value, B is the maximum Y value, C is the Log IC50 and D is the slope.

Assay [2] deals with T1, b-Raf(V600E) (Homo sapiens, UniProt P15056, V600E).
T1 construct: made in house
Put plainly: Raf/Mek Amplified Luminescence Proximity Homogeneous Assay (Alpha Screen), b-Raf(V600E). In kind it is biochemical. The conditions noted are these: mutant b-Raf(V600E), read-out: mut-b-RAF (IC50 in uM). An outline of the steps: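 Active b-Raf(V600E) (~4 pM) pre-incubated 60 min at room temperature with compound and kinase-dead biotinylated Mek (~10 nM) in Tris pH 7.5, MgCl2, BSA, DTT; ATP-started reaction ran 3 h, EDTA-stopped. Phospho-MEK detected by anti-p-MEK AlphaScreen luminescence; IC50 by non-linear regression.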

Assay [3] concerns Capan1 cells. Kind of assay: Cell Titer-Glo cell viability assay, Capan1. The assay is classed as cell-based. Conditions: Homo sapiens, CAPAN-1, 120 h; Pancreatic cell line Capan1; 5 days compound incubation; 2000 cells/well. On the procedure: as §1, §2, §3, §4
For assay [4], the system named is Malme3M cells. Kind of assay: Cell Titer-Glo cell viability assay, Malme3M. In kind it is cell-based. The conditions noted are these: Homo sapiens, Malme-3M, 120 h; Melanoma cell line Malme3M; 5 days compound incubation; 1000 cells/well. On the procedure:
as §1, §2, §3, §4

The subject of assay [5] is A375 cells. Put plainly: Cell Titer-Glo cell viability assay, A375. In kind it is cell-based. The conditions noted are these: Homo sapiens, A-375, 72 h; Melanoma cell line A375; 3 days compound incubation; 1000 cells/well. On the procedure:
as §1, §2, §3, §4

The subject of assay [6] is G361 cells. Put plainly: Cell Titer-Glo cell viability assay, G361. The assay is classed as cell-based. Conditions: Homo sapiens, G-361, 96 h; Melanoma cell line G361; 4 days compound incubation; 1000 cells/well. The protocol: as §1, §2, §3, §4

T1 sequence (P15056 whole entry V600E): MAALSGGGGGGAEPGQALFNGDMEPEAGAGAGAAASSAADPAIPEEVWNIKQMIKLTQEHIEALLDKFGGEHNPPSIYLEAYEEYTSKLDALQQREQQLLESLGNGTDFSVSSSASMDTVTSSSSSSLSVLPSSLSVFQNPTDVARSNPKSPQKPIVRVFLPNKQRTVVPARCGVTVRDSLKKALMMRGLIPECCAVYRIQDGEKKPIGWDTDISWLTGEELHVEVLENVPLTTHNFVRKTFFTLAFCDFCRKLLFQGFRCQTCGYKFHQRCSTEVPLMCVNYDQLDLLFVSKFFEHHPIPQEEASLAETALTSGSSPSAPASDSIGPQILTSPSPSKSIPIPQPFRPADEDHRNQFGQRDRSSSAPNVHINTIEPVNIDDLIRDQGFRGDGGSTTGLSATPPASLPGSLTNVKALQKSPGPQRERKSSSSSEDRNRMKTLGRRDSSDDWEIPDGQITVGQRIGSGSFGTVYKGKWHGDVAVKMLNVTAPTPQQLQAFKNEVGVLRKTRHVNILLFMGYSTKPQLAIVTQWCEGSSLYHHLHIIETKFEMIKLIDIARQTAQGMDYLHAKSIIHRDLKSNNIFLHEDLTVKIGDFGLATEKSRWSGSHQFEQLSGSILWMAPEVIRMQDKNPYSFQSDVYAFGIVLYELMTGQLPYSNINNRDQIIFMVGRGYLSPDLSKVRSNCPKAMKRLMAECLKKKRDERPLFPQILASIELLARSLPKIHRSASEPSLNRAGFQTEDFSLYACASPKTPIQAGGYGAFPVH

For `COCC(=O)NCCNc1nccc(-c2[nH]c(-c3ccc(C(F)(F)F)cc3)nc2-c2cnc(N)c(OC)c2)n1` [Compound 85, N-(2-(4-(4-(6-amino-5-methoxypyridin-3-yl)-2-(4-(trifluoromethyl)phenyl)-1H-imidazol-5-yl)pyrimidin-2-ylamino)ethyl)-2-methoxyacetamide], the half-maximal effective concentration (EC50) in assay [1] is 111 nM; in assay [3], 163 nM. In addition, in assay [2], the 50% inhibitory concentration (IC50) turned out to be 0.2 nM. Take `COCC(=O)NCCNc1nccc(-c2nc(-c3ccc(F)cc3)[nH]c2-c2cnc(N)c(OC)c2)n1` [Compound 81, N-(2-(4-(5-(6-amino-5-methoxypyridin-3-yl)-2-(4-fluorophenyl)-1H-imidazol-4-yl)pyrimidin-2-ylamino)ethyl)-2-methoxyacetamide]: the EC50 in assay [4] came out at 194 nM; in assay [5] it was 547 nM; in assay [6], 305 nM; in assay [3], 319 nM. Also, the half-inhibitory concentration (IC50) in assay [2] turned out to be 0.1 nM. With `COc1cc(-c2nc(-c3ccc(F)cc3)[nH]c2-c2ccncc2)cnc1N` [Compound 66, 5-(2-(4-fluorophenyl)-5-(pyridin-4-yl)-1H-imidazol-4-yl)-3-methoxypyridin-2-amine], the figures for the EC50 in assay [4], in assay [5] and in assay [6] were 816 nM, 623 nM and 1020 nM, respectively. Further, the half-inhibitory concentration (IC50) in assay [2] amounted to 0.6 nM. With `COC(=O)N[C@@H](C)CNc1nccc(-c2nc(C(C)(C)C)[nH]c2-c2cnc3[nH]cc(C(F)(F)F)c3c2)n1` [Compound 263, (S)-methyl 1-(4-(2-tert-butyl-5-(3-(trifluoromethyl)-1H-pyrrolo[2,3-b]pyridin-5-yl)-1H-imidazol-4-yl)pyrimidin-2-ylamino)propan-2-ylcarbamate], the half-inhibitory concentration (IC50) in assay [2] was found to be 65 nM. Consider `COc1cc(-c2[nH]c(-c3ccc(F)cc3F)nc2-c2ccncc2)cnc1N` [Compound 106, 5-(2-(2,4-difluorophenyl)-4-(pyridin-4-yl)-1H-imidazol-5-yl)-3-methoxypyridin-2-amine], for which the 50% effective concentration (EC50) in assay [1] turned out to be 118 nM; in assay [3], 674 nM. For the same compound, the IC50 in assay [2] is 1 nM. With `COc1cc(-c2nc(-c3ccc(F)cc3)[nH]c2-c2ccnc(F)c2)cnc1N` [Compound 111, 5-(2-(4-fluorophenyl)-5-(2-fluoropyridin-4-yl)-1H-imidazol-4-yl)-3-methoxypyridin-2-amine], the IC50 in assay [2] was 29.2 nM.

Consider `Nc1ncc(-c2[nH]c(-c3ccccc3)nc2-c2ccncc2)cc1O` [Compound 143, 2-amino-5-(2-phenyl-4-(pyridin-4-yl)-1H-imidazol-5-yl)pyridin-3-ol], for which the IC50 in assay [2] was found to be 215 nM. Same read-out and setting: with `COc1cc(-c2[nH]c(-c3ccccc3)nc2-c2ccnc(NCCNS(C)(=O)=O)n2)cnc1N` [Compound 99, N-(2-(4-(5-(6-amino-5-methoxypyridin-3-yl)-2-phenyl-1H-imidazol-4-yl)pyrimidin-2-ylamino)ethyl)methanesul-fonamide] the figure was 0.1 nM; with `COc1cc(-c2[nH]c(-c3ccc(F)cc3)nc2-c2ccnc(O)n2)cnc1N` [Compound 180, 4-(5-(6-amino-5-methoxypyridin-3-yl)-2-(4-fluorophenyl)-1H-imidazol-4-yl)pyrimidin-2-ol], 892 nM. The same measure, in the same setting: under `COc1cc(-c2[nH]c(-c3ccc4[nH]ccc4c3)nc2-c2ccncc2)cnc1N` [Compound 178, 5-(2-(1H-indol-5-yl)-4-(pyridin-4-yl)-1H-imidazol-5-yl)-3-methoxypyridin-2-amine] stands 0.9 nM. Same read-out and setting: under `[2H]C([2H])([2H])Oc1nc(-c2nc(C(C)(C)C)[nH]c2-c2ccnc(NC[C@H](C)NC(=O)OC)n2)cnc1N` [Compound 261, (S)-methyl 1-(4-(4-(5-amino-6-(D3-methoxy)pyrazin-2-yl)-2-tert-butyl-1H-imidazol-5-yl)pyrimidin-2-ylamino)propan-2-ylcarbamate] stands 0.1 nM; under `COCC(=O)N[C@@H](C)CNc1nccc(-c2[nH]c(C(C)(C)C)nc2-c2cnc(N)c(OC)n2)n1` [Example 7, (S)—N-(1-(4-(4-(5-amino-6-methoxypyrazin-2-yl)-2-tert-butyl-1H-imidazol-5-yl)pyrimidin-2-ylamino)propan-2-yl)-2-methoxyacetamide], 0.3 nM.

As for `COCC(=O)N[C@@H](C)CNc1nccc(-c2oc(-c3ccc(C(F)(F)F)cc3)nc2-c2cnc(N)c(OC)c2)n1` [Example 14], the IC50 in assay [2] is 3 nM. The same measure, in the same setting: under `COC(=O)N[C@@H](C)CNc1nccc(-c2[nH]c(C(C)(C)C)nc2-c2cnc(N)c(OC(F)F)c2)n1` [Compound 265, (S)-methyl 1-(4-(4-(6-amino-5-(difluoromethoxy)pyridin-3-yl)-2-tert-butyl-1H-imidazol-5-yl)pyrimidin-2-ylamino)propan-2-ylcarbamate] stands 0.01 nM; under `COc1cc(-c2nc(-c3ccccc3)[nH]c2-c2ccnc(N)n2)cnc1N` [Compound 73, 4-(4-(6-amino-5-methoxypyridin-3-yl)-2-phenyl-1H-imidazol-5-yl)pyrimidin-2-amine], 1.1 nM. For the compound `CC(=O)c1cc(-c2[nH]c(-c3ccc(F)cc3)nc2-c2ccncc2)cnc1N` [Compound 177, 1-(2-amino-5-(2-(4-fluorophenyl)-4-(pyridin-4-yl)-1H-imidazol-5-yl)pyridin-3-yl)ethanone], the IC50 in assay [2] is 3 nM. The same measure, in the same setting: under `COc1nc(-c2nc(C(C)(C)C)[nH]c2-c2ccnc(NC[C@H](C)NC(=O)OCC(C)(C)C)n2)cnc1N` [Compound 238, (S)-neopentyl 1-(4-(4-(5-amino-6-methoxypyrazin-2-yl)-2-tert-butyl-1H-imidazol-5-yl)pyrimidin-2-ylamino)propan-2-ylcarbamate] stands 0.1 nM; under `COc1cc(-c2nc(-c3ccccc3)[nH]c2-c2ccnc(NCCO)n2)cnc1N` [Example 3, 2-(4-(4-(6-amino-5-methoxypyridin-3-yl)-2-phenyl-1H-imidazol-5-yl)pyrimidin-2-ylamino)ethanol], 1.3 nM; under `COc1ccc(-c2nc(-c3ccncc3)c(-c3cnc(N)c(OC)c3)[nH]2)cc1OC` [Compound 107, 5-(2-(3,4-dimethoxyphenyl)-4-(pyridin-4-yl)-1H-imidazol-5-yl)-3-methoxypyridin-2-amine], 0.7 nM. Consider `COCC(=O)NC[C@H](C)Nc1nccc(-c2nc(C(C)(C)C)[nH]c2-c2cnc(N)c(OC)c2)n1` [Compound 204, (S)-N-(2-(4-(5-(6-amino-5-methoxypyridin-3-yl)-2-tert-butyl-1H-imidazol-4-yl)pyrimidin-2-ylamino)propyl)-2-methoxyacetamide], for which, in assay [2], the half-maximal inhibitory concentration (IC50) was 0.8 nM.

As for `COc1nc(-c2nc(C(C)(C)C)[nH]c2-c2ccnc(NC[C@H](C)NC(=O)[C@H](C)OC)n2)cnc1N` [Compound 242, (S)-N-((S)-1-(4-(4-(5-amino-6-methoxypyrazin-2-yl)-2-tert-butyl-1H-imidazol-5-yl)pyrimidin-2-ylamino)propan-2-yl)-2-methoxypropanamide], the IC50 in assay [2] turned out to be 0.2 nM. The same measure, in the same setting: under `COc1cc(-c2nc(-c3ccn(C)n3)[nH]c2-c2ccncc2)cnc1N` [Compound 119, 3-methoxy-5-(2-(1-methyl-1H-pyrazol-3-yl)-5-(pyridin-4-yl)-1H-imidazol-4-yl)pyridin-2-amine] stands 1.9 nM; under `COc1ncc(-c2[nH]c(-c3ccccc3)nc2-c2ccncc2)cc1N` [Compound 42, 2-methoxy-5-(2-phenyl-4-(pyridin-4-yl)-1H-imidazol-5-yl)pyridin-3-amine], 349 nM; under `COC(=O)N[C@@H](C)CNc1nccc(-c2[nH]c(C(C)(C)C)nc2-c2cnc(N)c(OC)n2)n1` [Example 8, (S)-methyl 1-(4-(4-(5-amino-6-methoxypyrazin-2-yl)-2-tert-butyl-1H-imidazol-5-yl)pyrimidin-2-ylamino)propan-2-ylcarbamate], 0.1 nM. Regarding `COc1cc(-c2[nH]c(-c3ccccc3)nc2-c2ccnc(NCCNS(=O)(=O)c3ccc(Cl)cc3)n2)cnc1N` [Compound 70, N-(2-(4-(5-(6-amino-5-methoxypyridin-3-yl)-2-phenyl-1H-imidazol-4-yl)pyrimidin-2-ylamino)ethyl)-4-chlorobenzenesulfonamide], in assay [2], the 50% inhibitory concentration (IC50) stood at 0.4 nM. On to `COc1cc(Nc2nccc(-c3[nH]c(C)nc3-c3cnc(N)c(OC)n3)n2)ccn1` [Compound 245, 4-(4-(5-amino-6-methoxypyrazin-2-yl)-2-methyl-1H-imidazol-5-yl)-N-(2-methoxypyridin-4-yl)pyrimidin-2-amine], for which the 50% inhibitory concentration (IC50) in assay [2] came to 11 nM.
